Reference: patent US10239832B2, “N-(1-hydroxy-3-(pyrrolidinyl)propan-2-yl)pyrrolidine-3-carboxamide derivatives as glucosylceramide synthase inhibitors” (BIOMARIN PHARMACEUTICAL INC., priority 2013, dated 2019)

target: T1, GCS (Canis lupus familiaris, UniProt A0A8I3MXG6); assay: GCS enzymatic assay (MDCK cell lysate, NBD-ceramide to glucosylceramide, LC/MS); type: biochemical, canine; details: Table 2; class symbols A, B, C; the table does not say which of the assays; read-out: Data Range (IC50 values)
T1 construct: endogenous in cells; host or cells: MDCK (Madin-Darby canine kidney) cells, whole-cell lysate
T1 sequence (A0A8I3MXG6 1-394): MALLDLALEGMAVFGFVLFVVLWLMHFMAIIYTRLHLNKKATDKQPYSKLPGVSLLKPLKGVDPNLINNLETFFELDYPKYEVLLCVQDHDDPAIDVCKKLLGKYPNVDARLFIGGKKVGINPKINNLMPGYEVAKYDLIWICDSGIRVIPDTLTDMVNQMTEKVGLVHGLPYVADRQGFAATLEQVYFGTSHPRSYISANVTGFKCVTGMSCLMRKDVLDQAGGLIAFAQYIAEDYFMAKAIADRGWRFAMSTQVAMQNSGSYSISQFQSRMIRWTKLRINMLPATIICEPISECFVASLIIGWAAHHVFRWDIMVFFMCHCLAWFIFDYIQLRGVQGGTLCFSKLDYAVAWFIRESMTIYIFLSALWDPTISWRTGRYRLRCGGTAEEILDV
Procedure, shortened: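 IC50 or percent inhibition came from LC/MS/MS (ESI+, MRM) of NBD-ceramide and glucosylceramide, with tolbutamide as internal standard. The reaction used MDCK (canine) cell lysate as the enzyme source and was ended with acetonitrile. Mock wells received 0.1% DMSO.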

IC50 [nM]	Compound
1 to 30	O=C(N[C@H](CN1CCCC1)[C@H](O)c1ccc(OC2CC2)c(F)c1)[C@@H]1CCN(c2ccc(Cl)cc2)C1 [Compound 65, (R)-1-(4-chlorophenyl)-N((1R,2R)-1-(4-cyclopropoxy-3-fluorophenyl)-1-hydroxy-3-(pyrrolidin-1-yl)propan-2-yl)pyrrolidine-3-carboxamide]
1 to 30	O=C(N[C@H](CN1CCCC1)[C@H](O)c1ccc(OC2CC2)c(Cl)c1)[C@@H]1CCN(c2ccc3ccccc3c2)C1 [Compound 67, (R)-N-((1R,2R)-1-(3-chloro-4-cyclopropoxyphenyl)-1-hydroxy-3-(pyrrolidin-1-yl)propan-2-yl)-1-(naphthalen-2-yl)pyrrolidine-3-carboxamide]
1 to 30	O=C(N[C@H](CN1CCCC1)[C@H](O)c1cc(F)c2c(c1)OCCO2)[C@@H]1CCN(c2ccc3ccccc3n2)C1 [Compound 68, (R)-N-((1R,2R)-1-(8-fluoro-2,3-dihydrobenzo[b][1,4]dioxin-6-yl)-1-hydroxy-3-(pyrrolidin-1-yl)propan-2-yl)-1-(quinolin-2-yl)pyrrolidine-3-carboxamide]
1 to 30	O=C(N[C@H](CN1CCCC1)[C@H](O)c1ccc(OC2CC2)c(F)c1)[C@@H]1CCN(c2ccc(F)cc2)C1 [Compound 69, (R)-N-((1R,2R)-1-(4-cyclopropoxy-3-fluorophenyl)-1-hydroxy-3-(pyrrolidin-1-yl)propan-2-yl)-1-(4-fluorophenyl)pyrrolidine-3-carboxamide]
1 to 30	O=C(N[C@H](CN1CCCC1)[C@H](O)c1ccc2c(c1)OCCO2)[C@@H]1CCN(c2ccc3ccccc3c2)C1 [Compound 70, (R)-N-((1R,2R)-1-(2,3-dihydrobenzo[b][1,4]dioxin-6-yl)-1-hydroxy-3-(pyrrolidin-1-yl)propan-2-yl)-1-(naphthalen-2-yl)pyrrolidine-3-carboxamide]
30 to 100	CC1(C)CCc2ccc(N3CC[C@@H](C(=O)N[C@H](CN4CCCC4)[C@H](O)c4ccc5c(c4)OCCO5)C3)cc2O1 [Compound 71, (R)-N-((1R,2R)-1-(2,3-dihydrobenzo[b][1,4]dioxin-6-yl)-1-hydroxy-3-(pyrrolidin-1-yl)propan-2-yl)-1-(2,2-dimethylchroman-7-yl)pyrrolidine-3-carboxamide]
1 to 30	O=C(N[C@H](CN1CCCC1)[C@H](O)c1ccc2c(c1)OCCO2)[C@@H]1CCN(c2ccc3ccccc3n2)C1 [Compound 72, (R)-N-((1R,2R)-1-(2,3-dihydrobenzo[b][1,4]dioxin-6-yl)-1-hydroxy-3-(pyrrolidin-1-yl)propan-2-yl)-1-(quinolin-2-yl)pyrrolidine-3-carboxamide]
1 to 30	O=C(N[C@H](CN1CCC1)[C@H](O)c1ccc(OC2CC2)c(Cl)c1)[C@@H]1CCN(c2ccc(Cl)cc2)C1 [Compound 73, (R)-N-((1R,2R)-3-(azetidin-1-yl)-1-(3-chloro-4-cyclopropoxyphenyl)-1-hydroxypropan-2-yl)-1-(4-chlorophenyl)pyrrolidine-3-carboxamide]
1 to 30	O=C(N[C@H](CN1CCCC1)[C@H](O)c1ccc(OC2CC2)c(Cl)c1)[C@@H]1CCN(c2cccc(Oc3ccccn3)c2)C1 [Compound 75, (R)-N-((1R,2R)-1-(3-chloro-4-cyclopropoxyphenyl)-1-hydroxy-3-(pyrrolidin-1-yl)propan-2-yl)-1-(3-(pyridin-2-yloxy)phenyl)pyrrolidine-3-carboxamide]
30 to 100	O=C(N[C@H](CN1CCCC1)[C@H](O)c1ccc2c(c1)OCCO2)[C@@H]1CCN(c2ccc3cc(Cl)sc3c2)C1 [Compound 76, (R)-1-(2-chlorobenzo[b]thiophen-6-yl)-N-((1R,2R)-1-(2,3-dihydrobenzo[b][1,4]dioxin-6-yl)-1-hydroxy-3-(pyrrolidin-1-yl)propan-2-yl)pyrrolidine-3-carboxamide]
1 to 30	O=C(N[C@H](CN1CCCC1)[C@H](O)c1ccc2c(c1)OCCO2)C1CCN(c2ccc3cc(Cl)sc3c2)C1 (stereo partly drawn) [Compound 76D, 1-(2-chlorobenzo[b]thiopen-6-yl)-N-((1R,2R)-1-(2,3-dihydrobenzo[b][1,4]dioxin-6-yl)-1-hydroxy-3-(pyrrolidin-1-yl)propan-2-yl)pyrrolidine-3-carboxamide]

same assay, conditions: Table 2; class symbols D, E, F, NA (not active); the table does not say which of the assays

Compound	Data Range (% inhibition)
CC1(C)CCc2cc(N3CCC(C(=O)N[C@H](CN4CCCC4)[C@H](O)c4ccc5c(c4)OCCO5)C3)ccc2O1 (stereo partly drawn) [Compound 64, N-((1R,2R)-1-(2,3-dihydrobenzo[b][1,4]dioxin-6-yl)-1-hydroxy-3-(pyrrolidin-1-yl)propan-2-yl)-1-(2,2-dimethylchroman-6-yl)pyrrolidine-3-carboxamide]	F (1-49% (or less than 50%))
O=C(N[C@H](CN1CCCCC1)[C@H](O)c1ccc(OC2CC2)c(Cl)c1)[C@@H]1CCN(c2ccc(Cl)cc2)C1 [Compound 66, (R)-N-((1R,2R)-1-(3-chloro-4-cyclopropoxyphenyl)-1-hydroxy-3-(piperidin-1-yl)propan-2-yl)-1-(4-chlorophenyl)pyrrolidine-3-carboxamide]	F (1-49% (or less than 50%))
O=C(N[C@H](CN1CCCC1)[C@H](O)c1ccc(OC2CC2)c(Cl)c1)[C@H]1CCN(c2ccc3ccccc3c2)C1 [Compound 67C, (S)-N-((1R,2R)-1-(3-chloro-4-cyclopropoxyphenyl)-1-hydroxy-3-(pyrrolidin-1-yl)propan-2-yl)-1-(naphthalen-2-yl)pyrrolidine-3-carboxamide]	E (50-74% (or less than 75%))
O=C(N[C@H](CN1CCCC1)[C@H](O)c1ccc(N2CCOCC2)c(Cl)c1)[C@@H]1CCN(c2ccc(Cl)cc2)C1 [Compound 74, (R)-N-((1R,2R)-1-(3-chloro-4-morpholinophenyl)-1-hydroxy-3-(pyrrolidin-1-yl)propan-2-yl)-1-(4-chlorophenyl)pyrrolidine-3-carboxamide]	D (75-100%)
O=C(N[C@H](CN1CCCC1)[C@H](O)c1ccc(N2CCOCC2)c(Cl)c1)[C@H]1CCN(c2ccc(Cl)cc2)C1 [Compound 74C, (S)-N-((1R,2R)-1-(3-chloro-4-morpholinophenyl)-1-hydroxy-3-(pyrrolidin-1-yl)propan-2-yl)-1-(4-chlorophenyl)pyrrolidine-3-carboxamide]	NA (not active—a negative value was generated for % inhibition)

Continued, values first:

Data Range (% inhibition)	Compound
F (1-49% (or less than 50%))	O=C(N[C@H](CN1CCCC1)[C@H](O)c1ccc(OC2CC2)c(F)c1)[C@H]1CCN(c2ccc(F)cc2)C1 [Compound 69A, (S)-N-((1R,2R)-1-(4-cyclopropoxy-3-fluorophenyl)-1-hydroxy-3-(pyrrolidin-1-yl)propan-2-yl)-1-(4-fluorophenyl)pyrrolidine-3-carboxamide]
E (50-74% (or less than 75%))	O=C(N[C@H](CN1CCCC1)[C@H](O)c1ccc2c(c1)OCCO2)[C@H]1CCN(c2ccc3ccccc3c2)C1 [Compound 70A, (S)-N-((1R,2R)-1-(2,3-dihydrobenzo[b][1,4]dioxin-6-yl)-1-hydroxy-3-(pyrrolidin-1-yl)propan-2-yl)-1-(naphthalen-2-yl)pyrrolidine-3-carboxamide]
E (50-74% (or less than 75%))	CC1(C)CCc2ccc(N3CCC(C(=O)N[C@H](CN4CCCC4)[C@H](O)c4ccc5c(c4)OCCO5)C3)cc2O1 (stereo partly drawn) [Compound 71E, N-((1R,2R)-1-(2,3-dihydrobenzo[b][1,4]dioxin-6-yl)-1-hydroxy-3-(pyrrolidin-1-yl)propan-2-yl)-1-(2,2-dimethylchroman-7-yl)pyrrolidine-3-carboxamide]
F (1-49% (or less than 50%))	CC1(C)CCc2ccc(N3CC[C@H](C(=O)N[C@H](CN4CCCC4)[C@H](O)c4ccc5c(c4)OCCO5)C3)cc2O1 [Compound 71F, (S)-N-((1R,2R)-1-(2,3-dihydrobenzo[b][1,4]dioxin-6-yl)-1-hydroxy-3-(pyrrolidin-1-yl)propan-2-yl)-1-(2,2-dimethylchroman-7-yl)pyrrolidine-3-carboxamide]
D (75-100%)	O=C(N[C@H](CN1CCCC1)[C@H](O)c1ccc2c(c1)OCCO2)C1CCN(c2ccc3ccccc3n2)C1 (stereo partly drawn) [Compound 72A, N-((1R,2R)-1-(2,3-dihydrobenzo[b][1,4]dioxin-6-yl)-1-hydroxy-3-(pyrrolidin-1-yl)propan-2-yl)-1-(quinolin-2-yl)pyrrolidine-3-carboxamide]
F (1-49% (or less than 50%))	O=C(N[C@H](CN1CCCC1)[C@H](O)c1ccc2c(c1)OCCO2)[C@H]1CCN(c2ccc3ccccc3n2)C1 [Compound 72B, (S)-N-((1R,2R)-1-(2,3-dihydrobenzo[b][1,4]dioxin-6-yl)-1-hydroxy-3-(pyrrolidin-1-yl)propan-2-yl)-1-(quinolin-2-yl)pyrrolidine-3-carboxamide]
D (75-100%)	O=C(N[C@H](CN1CCCC1)[C@H](O)c1ccc(OC2CC2)c(Cl)c1)[C@H]1CCN(c2cccc(Oc3ccccn3)c2)C1 [Compound 75E, (S)-N-((1R,2R)-1-(3-chloro-4-cyclopropoxyphenyl)-1-hydroxy-3-(pyrrolidin-1-yl)propan-2-yl)-1-(3-(pyridin-2-yloxy)phenyl)pyrrolidine-3-carboxamide]
